Assay results reported in paper PMC3199943, “Screening the MayBridge Rule of 3 Fragment Library for Compounds That Interact with the Trypanosoma brucei myo-Inositol-3-Phosphate Synthase and/or Show Trypanocidal Activity” (Molecular Biology International, 2011).
Where two headings read alike, the source gives them in different places.

Key:
A549 cells = experiment: Cytotoxicity against A549 cells, Alamar Blue; format: cell-based; details: Supplementary Table 1, compound 0.5 mM, percentage of controls (n=1); for viability at 500 µM: Homo sapiens, A549, 65 h
How it was run: (§1)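 HeLa and A549 cells grown in DMEM with 10% FCS and 2 mM L-Glutamine were seeded at 2 × 10^4 cells/well. They were exposed to compounds for ~65 hours, then Alamar Blue was added for a further 5 hours to measure viability.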

TbINO1 = molecular target: T1, TbINO1 (Trypanosoma brucei brucei, UniProt Q5QQ46); experiment: biochemical; format: binding
T1 sequence (Q5QQ46 1-528): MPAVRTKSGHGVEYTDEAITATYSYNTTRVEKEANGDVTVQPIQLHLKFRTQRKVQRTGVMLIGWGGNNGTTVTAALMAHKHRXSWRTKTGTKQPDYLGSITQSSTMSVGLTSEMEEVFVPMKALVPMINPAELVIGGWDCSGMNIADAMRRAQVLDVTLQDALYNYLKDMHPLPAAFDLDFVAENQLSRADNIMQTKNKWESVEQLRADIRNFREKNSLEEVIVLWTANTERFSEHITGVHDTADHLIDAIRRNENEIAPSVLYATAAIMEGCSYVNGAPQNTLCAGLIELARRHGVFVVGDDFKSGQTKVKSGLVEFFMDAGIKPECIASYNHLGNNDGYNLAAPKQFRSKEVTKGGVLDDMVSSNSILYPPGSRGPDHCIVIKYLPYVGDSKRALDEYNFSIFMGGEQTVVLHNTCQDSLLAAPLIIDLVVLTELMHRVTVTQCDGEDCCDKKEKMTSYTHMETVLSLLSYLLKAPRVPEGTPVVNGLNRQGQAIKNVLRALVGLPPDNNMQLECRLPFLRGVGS

HeLa cells = experiment: cells; details: for viability at 500 µM / CC50: Homo sapiens, HeLa; for viability at 500 µM: 65 h; for HeLa Cells Alamar Blue: Supplementary Table 1, compound 0.5 mM, percentage of controls, mean ± SD (n=3) or SE (n=2); for CC50: read-out: HeLa ED50
How it was run: as §1

[1] = read-out: Tb Ino1 Tm Shift [˚C]
[2] = read-out: HeLa Cells Alamar Blue
[3] = Supplementary Table 1, compound 1mM, mean ± SD from Boltzman curve fitting, read-out: Tb Ino1 Tm Shift [˚C]
[4] = Supplementary Table 1, compound 1mM, mean ± SD from Boltzman curve fitting
[5] = read-out: HeLa Cells Alamar Blue (% survival)

SMILES | viability at 500 µM (A549 cells) [%] | ΔTm at 1000 µM (TbINO1; [1]) [°C] | viability at 500 µM (HeLa cells; [2]) [%] | also measured
O=C(O)c1nsc(Cl)c1Cl [compound 602, 4,5‐dichloroisothiazole‐3‐carboxylic acid] | 68.2 | 0.1 ± 0.07 | 83.2 ± 12.5 | 
Cc1nc(CO)c(C)o1 [compound 78, (2,5‐dimethyl‐1,3‐oxazol‐4‐yl)methanol] | 110 | 0.13 ± 0.08 | 92.7 ± 11.5 | 
N#Cc1cccc(N2CCCC2)c1 [compound 362, 3‐pyrrolidin‐1‐ylbenzonitrile] | 63.3 | 0.05 ± 0.07 | 97.4 ± 19.9 | 
COc1cccc(N)c1 [compound 61, 3‐methoxyaniline] | 69.2 |  | 48.7 ± 8.9 | ΔTm at 1000 µM (TbINO1; [3]): 0.19 ± 0.07 °C
Cn1nc(-c2cccs2)cc1CO [compound 587, (1‐methyl‐3‐thien‐2‐yl‐1H‐pyrazol‐5‐yl)methanol] |  |  |  | A549 Cells Alamar Blue (A549 cells): 65.8 percentage of controls; Tb Ino1 Tm Shift [˚C] (TbINO1; [4]): 0.36 ± 0.07 °C; HeLa Cells Alamar Blue (HeLa cells): 91.6 ± 8.8 percentage of controls
Cc1ccc(O)c(C)n1 [compound 64, 2,6‐dimethylpyridin‐3‐ol] | 80.6 | 0.13 ± 0.07 | 103 ± 13.2 | 
OCc1c[nH]c2ccccc12 [compound 162, 1H-indol-3-ylmethanol] | 41.6 |  | 16.3 ± 10.6 | ΔTm at 1000 µM (TbINO1; read-out: TbIno1 Tm shift [°C]): 2.31 ± 0.06 °C; viability at 500 µM (HeLa cells; [5]): 16.3 ± 10.6%; CC50 (HeLa cells): 103 ± 6 µM
O=C(O)c1cc2sccc2s1 [compound 479, thieno[3,2‐b]thiophene‐2‐carboxylic acid] | 102 | 0.21 ± 0.07 | 109 ± 11.4 | 
Nc1cccc(-c2cncnc2)c1 [compound 353, 3‐pyrimidin‐5‐ylaniline] | 56.4 | 0.44 ± 0.06 | 78.7 ± 10 | 
Cc1cc(C(=O)O)c2cc(F)ccc2n1 [compound 660, 6‐fluoro‐2‐methyl‐4‐quinolinecarboxylic acid] |  |  |  | A549 Cells Alamar Blue (A549 cells): 146.9 percentage of controls; Tb Ino1 Tm Shift [˚C] (TbINO1; [4]): 0.5 ± 0.06 °C; HeLa Cells Alamar Blue (HeLa cells): 103 ± 3.9 percentage of controls
COC(=O)c1ccc(F)cc1Cl [compound 531, methyl 2‐chloro‐4‐fluorobenzoate] | 75.7 | 0.25 ± 0.07 | 84 ± 11.8 | 
CNCc1cccc(-c2ccncc2)c1 [compound 605, N‐methyl‐N‐(3‐pyridin‐4‐ylbenzyl)amine] | 36.2 | 0.05 ± 0.07 | 21.3 ± 13.8 | 
Cc1ccc(C#N)c(=O)[nH]1 [compound 109, 6‐methyl‐2‐oxo‐1,2‐dihydropyridine‐3‐carbonitrile] |  |  |  | A549 Cells Alamar Blue (A549 cells): 118.7 percentage of controls; Tb Ino1 Tm Shift [˚C] (TbINO1; [4]): 0.22 ± 0.06 °C; HeLa Cells Alamar Blue (HeLa cells): 97.4 ± 2 percentage of controls
O=C(O)CCc1c[nH]c2ccccc12 [compound 533, 3‐(1H‐indol‐3‐yl)propanoic acid] | 67.2 | 0.73 ± 0.07 | 94.9 ± 6 | 
N#CCCNCc1ccco1 [compound 189, 3‐[(2‐furylmethyl)amino]propanenitrile] | 84.4 | 0.75 ± 0.08 | 92.5 ± 7.2 | 
CN(C)C1(CN)CCSC1 (centres unmarked) [compound 268, 3‐(aminomethyl)‐N,N‐dimethyltetrahydro‐3‐thiophenamine] |  |  |  | A549 Cells Alamar Blue (A549 cells): 87.3 percentage of controls; Tb Ino1 Tm Shift [˚C] (TbINO1; [4]): 0.32 ± 0.07 °C; HeLa Cells Alamar Blue (HeLa cells): 88.4 ± 17.9 percentage of controls
Cc1occc(=O)c1O [compound 74, 3‐hydroxy‐2‐methyl‐4H‐pyran‐4‐one] | 105 | 1.13 ± 0.08 | 107 ± 10.5 | 
OCc1ccc(-c2cccs2)cc1 [compound 544, (4‐thien‐2‐ylphenyl)methanol] | 80 | 0.16 ± 0.08 | 74.7 ± 10.2 | 

SMILES | viability at 500 µM (A549 cells) [%] | ΔTm at 1000 µM (TbINO1; [1]) [°C] | viability at 500 µM (HeLa cells; [2]) [%] | also measured
Cc1cccc(O)n1 [compound 19, 6‐methylpyridin‐2‐ol] | 85.6 | 0.09 ± 0.08 | 103 ± 7.6 | 
N#Cc1ncccc1N1CCCCC1 [compound 517, 3‐piperidin‐1‐ylpyridine‐2‐carbonitrile] | 54.7 | 0.16 ± 0.07 | 51.2 ± 17.9 | 
Nc1cccc(-c2ccsc2)c1 [compound 404, 3‐thien‐3‐ylaniline] | 83.3 | 0.17 ± 0.05 | 89.4 ± 17.7 | 
NCc1ccc(C(F)(F)F)cc1 [compound 390, 4‐(trifluoromethyl)benzylamine] | 136 | 0.38 ± 0.08 | 84.4 ± 6.8 | 
COC(=O)c1cccc2cc[nH]c12 [compound 396, methyl 1H‐indole‐7‐carboxylate] | 164 | 0.12 ± 0.11 | 36.5 ± 11.9 | 
Nc1ccc(CN2CCOCC2)cc1 [compound 567, 4‐(morpholinomethyl)aniline] | 103 | 0.61 ± 0.05 | 90.1 ± 15.9 | 
CC1OCCC1=O (centres unmarked) [compound 11, 2‐methyltetrahydrofuran‐3‐one] | 85.3 | 0.77 ± 0.06 | 101 ± 5.4 | 
CNCc1cccc(-c2cccnc2)c1 [compound 606, N‐methyl‐N‐(3‐pyridin‐3‐ylbenzyl)amine] | 69.8 | 0.07 ± 0.08 | 70.8 ± 5.8 | 
N#CCc1ccc(O)cc1 [compound 98, 2‐(4‐hydroxyphenyl)acetonitrile] | 115 |  | 92.9 ± 6.5 | ΔTm at 1000 µM (TbINO1; [3]): 0.27 ± 0.05 °C
Cn1c(CN)nc2ccccc21 [compound 281, (1‐methyl‐1H‐benzimidazol‐2‐yl)methylamine] | 53.8 | 0.7 ± 0.04 | 47.6 ± 19.8 | CC50 (HeLa cells): 659 ± 65 µM
Cn1c(=O)cc(O)c2ccccc21 [compound 395, 4-hydroxy-1-methyl-1,2-dihydroquinolin-2-one] | 174 |  | 93 ± 0.3 | ΔTm at 1000 µM (TbINO1; read-out: TbIno1 Tm shift [°C]): 1.62 ± 0.03 °C; viability at 500 µM (HeLa cells; [5]): 93 ± 0.3%
O=C1CCOCC1 [compound 12, tetrahydro‐4H‐pyran‐4‐one] | 97.4 | 0.23 ± 0.07 | 100 ± 3.5 | 
Nc1ccc(-c2ccco2)cc1 [compound 257, 4‐(2‐furyl)aniline] | 75.7 | 0.83 ± 0.04 | 17 ± 12.7 | CC50 (HeLa cells): 114 ± 8 µM
CC(=O)c1sccc1N [compound 133, 1‐(3‐amino‐2‐thienyl)ethan‐1‐one] | 100 | 1.24 ± 0.07 | 83 ± 12.2 | 
OCc1ccncc1 [compound 18, 4‐pyridinylmethanol] | 102 | 0.36 ± 0.07 | 104 ± 3.9 | 
CN1CCN(Cc2ccccc2N)CC1 [compound 670, 2‐[(4‐methylpiperazin‐1‐yl)methyl]aniline] | 121 |  | 94.6 ± 8.5 | ΔTm at 1000 µM (TbINO1; [3]): 0.05 ± 0.07 °C
CNCc1ccc2c(c1)OCO2 [compound 305, N‐(1,3‐benzodioxol‐5‐ylmethyl)‐N‐methylamine] |  |  |  | A549 Cells Alamar Blue (A549 cells): 58.3 percentage of controls; Tb Ino1 Tm Shift [˚C] (TbINO1; [4]): 1.12 ± 0.05 °C; HeLa Cells Alamar Blue (HeLa cells): 56.8 ± 29.4 percentage of controls
O=C(O)C12CC3CC(CC(O)(C3)C1)C2 [compound 597, 3‐hydroxyadamantane‐1‐carboxylic acid] | 79.4 | 0.29 ± 0.06 | 75.2 ± 12.6 | 
